Test results: US8119614B2, “Substitution derivatives of N6-benzyladenosine, methods of their preparation, their use for preparation of drugs, cosmetic preparations and growth regulators, pharmaceutical preparations, cosmetic preparations and growth regulators containing these compounds” (Ustav Experimentalni Botaniky Akademie Ved Ceske Republiky, priority 2002, dated 2012)
pIC50: −log10 of the molar value.

How the values were obtained:
[1] = system: breast carcinoma cell lines MCF-7; experiment: In vitro cytotoxic activity, Calcein AM assay, MCF7; assay type: cell-based, human; details: 72 hours, read-out: IC 50 MCF7
Text: (§1) One of the parameters used, as the basis for cytotoxicity assays, is the metabolic activity of viable cells. For example, a microtiter assay, which uses the Calcein AM, is now widely used to quantitate cell proliferation and cytotoxicity. For instance, this assay is used in drug screening programs and in chemosensitivity testing. Because only metabolically active cells cleave Calcein AM, these assays detect viable cells exclusively. The quantity of reduced Calcein AM corresponds to the number of vital cells in the culture.
(§2) Human T-lymphoblastic leukemia cell line CEM; promyelocytic HL-60 and monocytic U937 leukemias; breast carcinoma cell lines MCF-7; cervical carcinoma cells HELA; mouse fibroblasts NIH3T3; human erythroleukaemia K562 and human malignant melanoma cells G361 were used for routine screening of compounds. The cells were maintained in Nunc/Corning 80 cm^2 plastic tissue culture flasks and cultured in cell culture medium (DMEM with 5 g/l glucose, 2 mM glutamine, 100 U/ml penicillin, 100 μg/ml streptomycin, 10% fetal calf serum and sodium bicarbonate).
(§3) The cell suspensions that were prepared and diluted according to the particular cell type and the expected target cell density (10^4 cells per well based on cell growth characteristics) were added by pipette (80 μl) into 96/well microtiter plates. Inoculates were allowed a pre-incubation period of 24 hours at 37° C. and 5% CO2 for stabilisation. Four-fold dilutions of the intended test concentration were added at time zero in 20 μl aliquots to the microtiter plate wells. Usually, test compound was evaluated at six 4-fold dilutions. In routine testing, the highest well concentration was 166.7 μM, but it can be the matter of change dependent on the agent. All drug concentrations were examined in duplicates. Incubations of cells with the test compounds lasted for 72 hours at 37° C., in 5% CO2 atmosphere and 100% humidity. At the end of incubation period, the cells were assayed by using the Calcein AM. Ten microliters of the stock solution were pipetted into each well and incubated further for 1 hours. Fluorescence (FD) was measured with the Labsystem FIA Reader Fluoroscan Ascent (UK). The tumour cell survival (GI50) was calculated using the following equitation: GI50=(FDdrug exposed well/mean FDcontrol wells)×100%. The GI50 value, the drug concentration lethal to 50% of the tumour cells, was calculated from the obtained dose response curves (FIG. 3).

HOS = experiment: In vitro cytotoxic activity, Calcein AM assay, HOS; assay type: cell-based; details: 72 hours
mouse fibroblasts NIH3T3 = experiment: In vitro cytotoxic activity, Calcein AM assay, NIH-3T3; assay type: cell-based; details: 72 hours, read-out: IC 50 NIH-3T3
Text: as §1, §2, §3

[2] = system: tobacco callus Nicotiana tabacum L. cv. Wisconsin 38; experiment: Growth of cytokinin-dependent tobacco callus; assay type: cell-based; details: for Activity (%) [10^−5 mol · l^−1 BAP = 100%]: callus growth, at concentration with highest activity; for Concentration with highest activity: fresh callus weight after four weeks
Experimental: Cytokinin-dependent tobacco callus Nicotiana tabacum L. cv. Wisconsin 38 was maintained at 25° C. in darkness on modified Murashige-Skoog medium, containing per 1 liter: 4 μmol nicotinic acid, 2.4 μmol pyridoxine hydrochloride, 1.2 μmol thiamine, 26.6 μmol glycine, 1.37 μmol glutamine, 1.8 μmol myo-inositol, 30 g of sucrose, 8 g of agar, 5.37 μmol α-naphtylacetic acid (NAA) and 0.5 μmol benzylaminopurine (BAP). Subcultivation was carried out every three weeks. Fourteen days before the bioassay, the callus tissue was transferred to the media without 6-benzylaminopurine (BAP). Biological activity was determined from the increase in fresh callus weight after four weeks of cultivation. Five replicates were prepared for each cytokinin concentration and the entire test was repeated twice. From the obtained data, the concentration with highest activity was selected for each compound tested. Relative activity of the compound at this concentration was calculated (Tab. 6). […] The cytokinins to be tested were dissolved in dimethylsulfoxide (DMSO) and the solution brought up to 10^−3M with distilled water. This stock was further diluted in the respective media used for the biotest to concentrations ranging from 10^−8M to 10^−4M.

[3] = system: Triticum aestivum cv. Hereward; experiment: Senescence inhibition on winter wheat leaf segments (chlorophyll retention); assay type: in vivo; details: for Concentration with highest activity: chlorophyll retention in excised wheat leaf tips, 96 h dark; for Activity (%) [10^−4 mol · l^−1 BAP = 100%]: chlorophyll retention, at concentration with highest activity
Experimental: Seeds of winter wheat, Triticum aestivum cv. Hereward, were washed under running water for 24 hours and then sown on vermiculite soaked with Knop's solution. They were placed in the grown chamber at 15° C. with a 16/8 h light period at 50 μmol·m^−2·s^−1. After 7 days, the first leaf was fully developed and the second leaf had started to grow. A tip section of the first leaf, approximately 35 mm long, was removed from 5 seedlings and trimmed slightly to a combined weight of 100 mg. The basal ends of the five leaf tips were placed in the wells of a microtiter polystyrene plate containing 150 μl of a cytokinin solution each. The entire plate was inserted into a plastic box lined with paper tissues soaked in distilled water to prevent leaf sections from drying out. After a 96 h incubation in the dark at 25° C., the leaves were removed and chlorophyll extracted by heating at 80° C. for 10 min in 5 ml of 80% ethanol (v/v). The sample volume was then restored to 5 ml by the addition of 80% ethanol (v/v). The absorbency of the extract was recorded at 665 nm. In addition, chlorophyll extracts from fresh leaves and leaf tips incubated in deionised water were measured. From the obtained data, the concentration with highest activity was selected for each compound tested. Relative activity of the compound at this concentration was calculated (Tab. 10). The activity obtained for 10^−4 M 6-benzylaminopurine (BAP) was postulated as 100%. The values shown are means of five replicates and the whole experiment was repeated twice. The cytokinins to be tested were dissolved in dimethylsulfoxide (DMSO) and the solution brought up to 10^−3M with distilled water. This stock was further diluted in distilled water to concentrations ranging from 10^−8M to 10^−4M.

[4] = system: Amaranthus caudatus cotyledon/hypocotyl explants; experiment: Amaranthus bioassay (betacyanin content); assay type: in vivo; details: for Concentration with highest activity: 48 h dark; for Activity (%) [10^−5 mol · l^−1 BAP = 100%]: at concentration with highest activity
Experimental: Standard Amaranthus bioassay was performed with several modifications. The seeds of Amaranthus caudatus var. atropurpurea were surface-sterilised in 10% N-chlorobenzenesulfonamide (w/v) for 10 min and washed 5 times in deionized water. They were placed in 15 cm Petri dishes containing paper tissues saturated with deionized water. After 72 h of cultivation at 25° C. in darkness, the roots of the seedlings were cut off. The explants, consisting of two cotyledons and hypocotyls, were placed in 5 cm Petri dishes on two layers of filter paper soaked in 1 ml of incubation medium containing 10 μmol NA2HPO4-KH2PO4, pH 6.8, 5 μmol tyrosine and the cytokinin to be tested. There were 20 explants per dish. The procedure was carried out under a green safe light in a darkroom. After a 48 h of incubation at 25° C. in darkness, betacyanin was extracted by freezing the explants in 4 ml […] acetic acid. The concentration of betacyanin was determined by comparing the absorbance at 537 nm and 620 nm as follows: ΔA=[…]-[…]. From the obtained data, the concentration with highest activity was selected for each compound tested. Relative activity of the compound at this concentration was calculated (Tab. 12). […] The values shown in table 8 are means of five replicates and the entire test was repeated twice. The cytokinins to be tested were dissolved in dimethylsulfoxide (DMSO) and the solution brought up to 10^-3M with distilled water. This stock was further diluted in the respective media used for the biotest to concentrations ranging from 10^-8M to 10^-4M. […] From the data obtained (FIG. 14) the maximum effective concentration of the tested compound was calculated as well as its relative effectiveness at this concentration (Table 12). […]

[5] = system: human erythroleukaemia K562; experiment: In vitro cytotoxic activity, Calcein AM assay, K-562; assay type: cell-based; details: 72 hours, read-out: IC 50 K-562
Text: as §1, §2, §3

promyelocytic HL-60 = experiment: In vitro cytotoxic activity, Calcein AM assay, HL60; assay type: cell-based, human; details: 72 hours, read-out: IC 50 HL60
Text: as §1, §2, §3

[6] = system: Human T-lymphoblastic leukemia cell line CEM; experiment: In vitro cytotoxic activity, Calcein AM assay, CEM; assay type: cell-based; details: 72 hours
Text: as §1, §2, §3

SMILES | pIC50 [1] | pIC50 (HOS) | pIC50 (mouse fibroblasts NIH3T3) | Activity (%) [10^−5 mol · l^−1 BAP = 100%] [2] [%] | Concentration with highest activity [2] | Concentration with highest activity [3] | Activity (%) [10^−4 mol · l^−1 BAP = 100%] [3] [%] | Concentration with highest activity [4] | Activity (%) [10^−5 mol · l^−1 BAP = 100%] [4] [%] | pIC50 [5] | pIC50 (promyelocytic HL-60) | pIC50 [6]
OC[C@H]1O[C@@H](n2cnc3c(NCc4c(F)ccc(F)c4F)ncnc32)[C@H](O)[C@@H]1O [2,3,6-trifluorobenzylamino, 6-(2,3,6-trifluorobenzylamino)purine riboside] | < 3.78 | < 3.78 | < 3.78 | 92 ± 2 | 10^−5 mol · l^−1 | 10^−4 mol · l^−1 | 133 ± 14 | 10^−4 mol · l^−1 | 94 ± 1 | < 3.78 | 4.89 | –
OC[C@H]1O[C@@H](n2cnc3c(NCc4cc(F)c(F)cc4F)ncnc32)[C@H](O)[C@@H]1O [2,4,5-trifluorobenzylamino, 6-(2,4,5-trifluorobenzylamino)purine riboside] | – | – | – | 95 ± 3 | 10^−5 mol · l^−1 | – | – | 10^−4 mol · l^−1 | 120 ± 1 | – | – | –
OC[C@H]1O[C@@H](n2cnc3c(NCc4ccc(Cl)cc4Cl)ncnc32)[C@H](O)[C@@H]1O [2,4-dichlorobenzylamino, 6-(2,4-dichlorobenzylamino)purine riboside] | 3.90 | < 3.78 | < 3.78 | – | – | 10^−5 mol · l^−1 | 5 ± 1 | 10^−4 mol · l^−1 | 3 ± 2 | 4.07 | 4.02 | 4.06
OC[C@H]1O[C@@H](n2cnc3c(NCc4ccc(F)cc4F)ncnc32)[C@H](O)[C@@H]1O [2,4-difluorobenzylamino, 6-(2,4-difluorobenzylamino)purine riboside] | < 3.78 | < 3.78 | < 3.78 | – | – | 10^−4 mol · l^−1 | 171 ± 8 | 10^−4 mol · l^−1 | 88 ± 7 | 5.13 | 5.47 | 5.15
OC[C@H]1O[C@@H](n2cnc3c(NCc4ccccc4Br)ncnc32)[C@H](O)[C@@H]1O [2-bromobenzylamino, 6-(2-bromobenzylamino)purine riboside] | < 3.78 | < 3.78 | < 3.78 | 100 ± 4 | 10^−5 mol · l^−1 | 10^−5 mol · l^−1 | 86 ± 19 | 10^−4 mol · l^−1 | 147 ± 7 | 5.00 | 5.18 | 4.91
OC[C@H]1O[C@@H](n2cnc3c(NCc4ccc(F)cc4Cl)ncnc32)[C@H](O)[C@@H]1O [2-chloro-4-fluorobenzylamino, 6-(2-chloro-4-fluorobenzylamino)purine riboside] | < 3.78 | < 3.78 | < 3.78 | 98 ± 4 | 10^−5 mol · l^−1 | – | – | 10^−4 mol · l^−1 | 115 ± 1 | 4.93 | 5.05 | 4.68
OC[C@H]1O[C@@H](n2cnc3c(NCc4cc(F)cc(F)c4)ncnc32)[C@H](O)[C@@H]1O [3,5-difluorobenzylamino, 6-(3,5-difluorobenzylamino)purine riboside] | < 3.78 | < 3.78 | < 3.78 | 95 ± 3 | 10^−6 mol · l^−1 | 10^−4 mol · l^−1 | 195 ± 14 | 10^−4 mol · l^−1 | 88 ± 1 | < 3.78 | 5.04 | 4.61
COc1ccc(CNc2ncnc3c2ncn3[C@@H]2O[C@H](CO)[C@@H](O)[C@H]2O)cc1O [3-hydroxy-4-methoxybenzylamino, 6-(3-hydroxy-4-methoxybenzylamino)purine riboside] | < 3.78 | < 3.78 | < 3.78 | – | – | 10^−4 mol · l^−1 | 22 ± 5 | 10^−4 mol · l^−1 | 0 | < 3.78 | < 3.78 | < 3.78
OC[C@H]1O[C@@H](n2cnc3c(NCc4cccc(I)c4)ncnc32)[C@H](O)[C@@H]1O [3-jodobenzylamino, 6-(3-iodobenzylamino)purine riboside] | – | – | – | 47 ± 12 | 10^−6 mol · l^−1 | 10^−4 mol · l^−1 | 98 ± 4 | 10^−5 mol · l^−1 | 102 ± 18 | – | – | –
